This is an account of results in PubChem BioAssay (NCI).

Holding throughout (assay): growth of human tumour cells (NCI), 48 h
In test [1] the test system is HOP-62 NSCLC.
The test system of test [2] is OVCAR-3 ovarian.
The subject of test [3] is CCRF-CEM leukemia.
In test [4] the test system is SR leukemia.
For test [5], the system named is NCI-H23 lung.
Test [6] concerns HCT-116 colon.
The test system of test [7] is HOP-92 NSCLC.
Test [8] has as its system A498 renal.
Test [9] concerns MOLT-4 leukemia.
The test system of test [10] is SK-OV-3 ovarian.

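The compound was tested at five concentrations on cells cultured in 96-well plates, with a 48-hour exposure period. Here, GI50 denotes the concentration required for 50% inhibition of growth. The concentration for full growth arrest is given as TGI.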 Some results are limits rather than exact numbers.

For `COc1cccc(C=Nc2cc(C)ccn2)c1O.COc1cccc(C=Nc2cc(C)ccn2)c1O.[Cu]`, the GI50 in test [1] was 22.2 µM; in test [2], 14 µM; in [3], 6.01 µM; in test [4], 18.6 µM; in test [5], 19 µM; in [6] it was 14.1 µM. For the same compound, the GI50 is 30.3 µM in test [7], 22800 nM in test [8], 10.9 µM in test [9] and 13.6 µM in test [10]. Also, the TGI in [1] was 63.7 µM; in [2], 40.9 µM; in test [3] it was 32.1 µM; in [4], more than 100 µM; in test [5], 49.4 µM; in test [6] it was 32.3 µM. For the same compound, the TGI in [7] turned out to be 50.6 µM; in test [8], 43.4 µM; in [9], 73.4 µM; in test [10], 28.1 µM.

Regarding `O=C1C(=O)c2c(nc3ccc(Cl)cn23)-c2ccccc21`, the GI50 in test [1] is 0.666 µM; in test [2], 0.249 µM; in test [3], 0.411 µM; in [4], 0.348 µM; in test [5], 0.324 µM; in [6], 0.311 µM. The GI50 in test [7] is 0.674 µM; in [8] it was 1640 nM; in [9], 0.308 µM; in test [10], 1.71 µM. Besides, the TGI in test [1] amounted to 1.66 µM; in [2], 0.908 µM; in test [3] it was 3.68 µM; in [4], 1.44 µM; in test [5] it was 1.47 µM; in [6] it was 3.73 µM. The TGI in test [7] was found to be 1.98 µM; in [8], 3.11 µM; in test [10] it was 3.31 µM.

Take `CCN(C(=O)N1CCN(c2cc3c(cc2F)c(=O)c(C(=O)O)cn3C2CC2)CC1)c1nc(-c2ccc(C)cc2)cs1`: the GI50 is 1.41 µM in test [1]; 0.368 µM in [2]; 0.356 µM in test [3]; 0.269 µM in [4]; 0.399 µM in test [5]; 1.04 µM in test [6]. The GI50 in [7] is 0.708 µM; in test [9], 0.469 µM; in test [10], 1.53 µM. Besides, the TGI was more than 100 µM in test [1]; 2.47 µM in [2]; more than 100 µM in test [3]; more than 100 µM in test [4]; 24.6 µM in [5]; more than 40.1 µM in test [6]. For the same compound, the TGI was 2.8 µM in [7], 0.486 µM in test [8], more than 100 µM in test [9] and 19.4 µM in [10].

On to `C=CC(=O)N(C)[C@H]1C[C@H]2OC(C)(C1OC)n1c3ccccc3c3c4c(c5c6ccccc6n2c5c31)C(=O)NC4` (stereo partly drawn), for which the GI50 in test [1] is 0.0193 µM; in test [2], 0.16 µM; in [3] it was 0.0337 µM; in test [4], 0.0983 µM; in test [5], 0.158 µM; in test [6] it was 0.0681 µM. For the same compound, the GI50 is 0.0402 µM in test [7], 34.9 nM in [8], 0.0773 µM in [9] and 0.0955 µM in test [10]. Also, the TGI in [1] is 0.176 µM; in test [2], 0.851 µM; in test [3] it was 1.35 µM; in test [4] it was 0.776 µM; in test [5], 2.08 µM; in [6] it was 0.672 µM. Further, the TGI was determined as 0.266 µM in [7], 0.182 µM in test [8], 0.899 µM in test [9] and 0.318 µM in test [10].

Regarding `CCCn1c(C)nc2c1C(=O)c1ccccc1C2=O`, the GI50 was 41.3 µM in test [1]; 11.6 µM in test [2]; 15.6 µM in test [3]; 15.1 µM in test [4]; 26.7 µM in test [5]; 23.7 µM in [6]. Further, the GI50 is more than 100 µM in test [7], 34600 nM in test [8], 19 µM in test [9] and 86.2 µM in test [10]. Also, the TGI in test [1] is more than 100 µM; in [2] it was 39.2 µM; in [3], more than 100 µM; in test [4], 79.4 µM; in test [5] it was more than 100 µM; in test [6], 65.9 µM. For the same compound, the TGI in test [7], in test [8], in test [9] and in [10] was more than 100 µM in each case.

Regarding `C=CC(=O)Nc1cccc(C)c1Nc1cc(-c2cccnc2Cc2c(C)c(OC)cc(OC)c2C)ncn1`, the GI50 was 19 µM in test [1]; 7.04 µM in test [2]; 8.26 µM in [3]; 4.41 µM in test [4]; 12.7 µM in [5]; 16.6 µM in test [6]. Besides, the GI50 was 9.91 µM in test [7], 1930 nM in [8], 3.6 µM in test [9] and 34.5 µM in test [10]. For the same compound, the TGI was 75.7 µM in test [1]; 38.9 µM in test [2]; more than 100 µM in test [3]; more than 100 µM in [4]; 47.3 µM in test [5]; 44.6 µM in test [6]. In addition, the TGI was 47.3 µM in [7], 9.44 µM in [8], more than 100 µM in test [9] and more than 100 µM in [10].

For the compound `Cc1cc(N/N=C/c2nc(-c3ccc(Br)cc3)oc2C)c2cc(Cl)ccc2n1`, the GI50 in [1], in test [2], in test [3], in test [4], in [5] and in test [6] was more than 100 µM each time. Besides, the GI50 is more than 100 µM in [7], more than 100000 nM in test [8], more than 100 µM in [9] and more than 100 µM in [10]. Besides, the TGI in test [1], in test [2], in test [3], in [4], in test [5] and in test [6] was more than 100 µM throughout. In addition, the TGI in test [7], in [8], in test [9] and in test [10] was more than 100 µM in each case.

Regarding `CCCCCCCCCCCC(=O)OCCOCCOCCOCCOCCOCc1ccc(OC)cc1`, the TGI in test [1], in [2], in test [3], in test [4], in [5] and in test [6] was more than 100 µM throughout. The TGI in test [7], in test [8], in test [9] and in test [10] was more than 100 µM throughout.
